Assay results: US11807644B2 (PMV Pharmaceuticals, Inc., priority 2020, dated 2023)

Biological target: T1, recombinant His-tag Y220C p53 DBD protein (Homo sapiens, UniProt P04637, Y220C)
T1 construct: recombinant His-tag Y220C p53 DBD protein (amino acids #˜94-312)
Experiment: In vitro DNA binding activity assay (TR-FRET): binding of His-tag Y220C p53 DBD to biotin-labeled consensus DNA
Type: biochemical
Conditions: SC150 = concentration to increase DNA binding by […], His-tag Y220C p53 DBD, biotin-labeled consensus DNA

Y220C SC150 (μM) | Compound
* (* = 0 μM ≤ SC150 < 0.1 μM) | CN1CC[C@@H](Nc2cccc3c2cc(-c2noc(CNC(=O)[C@@H]4C[C@H]4c4ccccc4F)n2)n3CC(F)(F)F)[C@@H](F)C1 [Compound 224B, (1R,2R)-N-{[3-(4-{[(3S,4R)-3-fluoro-1-methylpiperidin-4-yl]amino}-1-(2,2,2-trifluoroethyl)-1H-indol-2-yl)-1,2,4-oxadiazol-5-yl]methyl}-2-(2-fluorophenyl)cyclopropane-1-carboxamide]
* (* = 0 μM ≤ SC150 < 0.1 μM) | CN1CC[C@@H](Nc2cccc3c2cc(-c2noc(CNC(=O)[C@@H]4C[C@H]4c4cnn(C)c4)n2)n3CC(F)(F)F)[C@@H](F)C1 [Compound 225B, (1R,2R)-N-{[3-(4-{[(3S,4R)-3-fluoro-1-methylpiperidin-4-yl]amino}-1-(2,2,2-trifluoroethyl)-1H-indol-2-yl)-1,2,4-oxadiazol-5-yl]methyl}-2-(1-methyl-1H-pyrazol-4-yl)cyclopropane-1-carboxamide]
* (* = 0 μM ≤ SC150 < 0.1 μM) | CN1CC[C@@H](Nc2cccc3c2cc(-c2noc(CNC(=O)[C@@H]4C[C@H]4c4ccccn4)n2)n3CC(F)(F)F)[C@@H](F)C1 [Compound 226B, (1R,2R)-N-{[3-(4-{[(3S,4R)-3-fluoro-1-methylpiperidin-4-yl]amino}-1-(2,2,2-trifluoroethyl)-1H-indol-2-yl)-1,2,4-oxadiazol-5-yl]methyl}-2-(pyridin-2-yl)cyclopropane-1-carboxamide]
* (* = 0 μM ≤ SC150 < 0.1 μM) | CN1CC[C@@H](Nc2cccc3c2cc(-c2noc(CNc4cn[nH]c4)n2)n3CC(F)(F)F)[C@@H](F)C1 [Compound 227B, N-[(3S,4R)-3-fluoro-1-methylpiperidin-4-yl]-2-(5-{[(1H-pyrazol-4-yl)amino]methyl}-1,2,4-oxadiazol-3-yl)-1-(2,2,2-trifluoroethyl)-1H-indol-4-amine]
* (* = 0 μM ≤ SC150 < 0.1 μM) | CC(=O)NCc1nc(-c2cc3c(N[C@@H]4CCN(C)C[C@@H]4F)cccc3n2CC(F)(F)F)no1 [Compound 228B, N-{[3-(4-{[(3S,4R)-3-fluoro-1-methylpiperidin-4-yl]amino}-1-(2,2,2-trifluoroethyl)-1H-indol-2-yl)-1,2,4-oxadiazol-5-yl]methyl}acetamide]
* (* = 0 μM ≤ SC150 < 0.1 μM) | CN(C)CCn1ccc(C(=O)NCc2nc(-c3cc4c(N[C@@H]5CCN(C)C[C@@H]5F)cccc4n3CC(F)(F)F)no2)c1 [Compound 229B, 1-[2-(dimethylamino)ethyl]-N-{[3-(4-{[(3S,4R)-3-fluoro-1-methylpiperidin-4-yl]amino}-1-(2,2,2-trifluoroethyl)-1H-indol-2-yl)-1,2,4-oxadiazol-5-yl]methyl}-1H-pyrrole-3-carboxamide]
* (* = 0 μM ≤ SC150 < 0.1 μM) | CN1CC[C@@H](Nc2cccc3c2cc(-c2noc(CNc4ccn[nH]4)n2)n3CC(F)(F)F)[C@@H](F)C1 [Compound 230B, N-[(3S,4R)-3-fluoro-1-methylpiperidin-4-yl]-2-(5-{[(1H-pyrazol-5-yl)amino]methyl}-1,2,4-oxadiazol-3-yl)-1-(2,2,2-trifluoroethyl)-1H-indol-4-amine]
* (* = 0 μM ≤ SC150 < 0.1 μM) | CC(C)n1cnc(C(=O)NCc2nc(-c3cc4c(N[C@@H]5CCN(C)C[C@@H]5F)cccc4n3CC(F)(F)F)no2)c1 [Compound 232B, N-{[3-(4-{[(3S,4R)-3-fluoro-1-methylpiperidin-4-yl]amino}-1-(2,2,2-trifluoroethyl)-1H-indol-2-yl)-1,2,4-oxadiazol-5-yl]methyl}-1-(propan-2-yl)-1H-imidazole-4-carboxamide]
* (* = 0 μM ≤ SC150 < 0.1 μM) | CN1CC[C@@H](Nc2cccc3c2cc(-c2noc(CNC(=O)[C@H]4CC4(C)C)n2)n3CC(F)(F)F)[C@@H](F)C1 [Compound 233B, (1S)-N-{[3-(4-{[(3S,4R)-3-fluoro-1-methylpiperidin-4-yl]amino}-1-(2,2,2-trifluoroethyl)-1H-indol-2-yl)-1,2,4-oxadiazol-5-yl]methyl}-2,2-dimethylcyclopropane-1-carboxamide]
* (* = 0 μM ≤ SC150 < 0.1 μM) | CN1CCN(C[C@@H]2C[C@H]2C(=O)NCc2nc(-c3cc4c(N[C@@H]5CCN(C)C[C@@H]5F)cccc4n3CC(F)(F)F)no2)CC1 [Compound 234B, (1R,2R)-N-{[3-(4-{[(3S,4R)-3-fluoro-1-methylpiperidin-4-yl]amino}-1-(2,2,2-trifluoroethyl)-1H-indol-2-yl)-1,2,4-oxadiazol-5-yl]methyl}-2-[(4-methylpiperazin-1-yl)methyl]cyclopropane-1-carboxamide]
* (* = 0 μM ≤ SC150 < 0.1 μM) | CN1CC[C@@H](Nc2cccc3c2cc(-c2noc(CNC(=O)[C@@H]4C[C@H]4c4cccc(F)c4)n2)n3CC(F)(F)F)[C@@H](F)C1 [Compound 235B, (1R,2R)-N-{[3-(4-{[(3S,4R)-3-fluoro-1-methylpiperidin-4-yl]amino}-1-(2,2,2-trifluoroethyl)-1H-indol-2-yl)-1,2,4-oxadiazol-5-yl]methyl}-2-(3-fluorophenyl)cyclopropane-1-carboxamide]
* (* = 0 μM ≤ SC150 < 0.1 μM) | CN1CC[C@@H](Nc2cccc3c2cc(-c2noc(CNC(=O)c4cn(C)nn4)n2)n3CC(F)(F)F)[C@@H](F)C1 [Compound 236B, N-{[3-(4-{[(3S,4R)-3-fluoro-1-methylpiperidin-4-yl]amino}-1-(2,2,2-trifluoroethyl)-1H-indol-2-yl)-1,2,4-oxadiazol-5-yl]methyl}-1-methyl-1H-1,2,3-triazole-4-carboxamide]
* (* = 0 μM ≤ SC150 < 0.1 μM) | CC(CO)n1ccc(C(=O)NCc2nc(-c3cc4c(N[C@@H]5CCN(C)C[C@@H]5F)cccc4n3CC(F)(F)F)no2)c1 (stereo partly drawn) [Compound 237B, N-{[3-(4-{[(3S,4R)-3-fluoro-1-methylpiperidin-4-yl]amino}-1-(2,2,2-trifluoroethyl)-1H-indol-2-yl)-1,2,4-oxadiazol-5-yl]methyl}-1-(1-hydroxypropan-2-yl)-1H-pyrrole-3-carboxamide]
* (* = 0 μM ≤ SC150 < 0.1 μM) | CN1CC[C@@H](Nc2cccc3c2cc(-c2noc(CNC(=O)c4ccn(CC(=O)O)c4)n2)n3CC(F)(F)F)[C@@H](F)C1 [Compound 238B, 2-[3-({[3-(4-{[(3S,4R)-3-fluoro-1-methylpiperidin-4-yl]amino}-1-(2,2,2-trifluoroethyl)-1H-indol-2-yl)-1,2,4-oxadiazol-5-yl]methyl}carbamoyl)-1H-pyrrol-1-yl]acetic acid]
* (* = 0 μM ≤ SC150 < 0.1 μM) | CN1CC[C@@H](Nc2cccc3c2cc(-c2noc(CNC(=O)[C@@H]4CC4(C)C)n2)n3CC(F)(F)F)[C@@H](F)C1 [Compound 239B, (1R)-N-{[3-(4-{[(3S,4R)-3-fluoro-1-methylpiperidin-4-yl]amino}-1-(2,2,2-trifluoroethyl)-1H-indol-2-yl)-1,2,4-oxadiazol-5-yl]methyl}-2,2-dimethylcyclopropane-1-carboxamide]
* (* = 0 μM ≤ SC150 < 0.1 μM) | CC(C)Cn1ccc(C(=O)NCc2nc(-c3cc4c(N[C@@H]5CCN(C)C[C@@H]5F)cccc4n3CC(F)(F)F)no2)c1 [Compound 240B, N-{[3-(4-{[(3S,4R)-3-fluoro-1-methylpiperidin-4-yl]amino}-1-(2,2,2-trifluoroethyl)-1H-indol-2-yl)-1,2,4-oxadiazol-5-yl]methyl}-1-(2-methylpropyl)-1H-pyrrole-3-carboxamide]
